Measurements reported in US7851606B2, “Negatively charged minor groove binders” (Elitech Holding B.V., priority 2002, dated 2010).
{CDPI3-SO3} = negatively charged sulfonated CDPI3 minor groove binder; {CDPI4-(SO3)2} = disulfonated CDPI4 minor groove binder; {CDPI3(C)} = code of the source, not defined here; {CDPI3(N)} = code of the source, not defined here

Assays:
[1] = tested on: complementary targets that contain A/C mismatch at positions 5, 6, 7 and 8; assay: Mismatch discrimination of oligonucleotide conjugates 5′-CCAAAATTAC-X^11-3′ hybridized to complementary targets (Example 4); format: binding; settings: for ΔΔG° between match and mismatch: calculated at 50° C.
Experimental: This example illustrates conjugates of the present invention to perform mismatch discrimination.
Oligonucleotide conjugates 5′-CCAAAATTAC-X^11-3′ (SEQ ID NO:1), where X ^11 is a minor groove binder of FIG. 1, were hybridized to different complementary targets that contain A/C mismatch at positions 5, 6, 7 and 8, relative to the attached minor groove binder.
The relative free energy difference (ΔΔG°) between match and mismatch at positions 5, 6, 7 and 8 were calculated at 50° C. and are listed in Table below. The ΔΔG° values were calculated as described in U.S. application Ser. No. 09/796,988.
Table of ΔΔG° between match and mismatch calculated at 50° C. for different conjugates.

[2] = tested on: matched complement of ODN # 1; assay: Thermodynamic properties / mismatch discrimination of 3′-conjugated GGTTTTAATG-X″ sequences (Example 5, FIG. 2); format: binding; settings: C/A mismatch at positions 5, 6, 7 and 8; 50° C.; PCR buffer; oligonucleotide 5×10^−7M; in words
Experimental: Thermodynamic properties of 3′ -conjugated, where X″ represents the attached minor groove binder which is either CDPI3 (C), CDPI3 (N) and CDPI4-(SO3^−)2. The parameters were determined at PCR buffer, where the oligonucleotide concentration was 5×10^−7M. The sequences below were hybridized to matched complement of ODN # 1. The relative free energy difference (ΔΔG°) between match and mismatch at positions 5, 6, 7 and 8 were calculated at 50° C. and plotted in FIG. 2. The bold C base in the sequences indicates the position of the C/A mismatch.

| Substance | ΔΔG° between match and mismatch ([1]; A/C mismatch position 5) [kJ/mol] | ΔΔG° between match and mismatch ([1]; A/C mismatch position 6) [kJ/mol] | ΔΔG° between match and mismatch ([1]; A/C mismatch position 7) [kJ/mol] | ΔΔG° between match and mismatch ([1]; A/C mismatch position 8) [kJ/mol] | mismatch discrimination performance versus the other conjugates in the Table ([1]; in words) | mismatch discrimination (ΔΔG° plotted in FIG. 2) [2] |
| --- | --- | --- | --- | --- | --- | --- |
| CDPI3 (C): Oligonucleotide conjugate 5′-CCAAAATTAC-X^11-3′, X^11 being the minor groove binder CDPI3 (C) of FIG. 1 (3' {CDPI3(C)}, sugars by position and backbone not given here) | 20.38 | 26.02 | 26.11 | 23.1 | – | – |
| CDPI3 (N): Oligonucleotide conjugate 5′-CCAAAATTAC-X^11-3′, X^11 being the minor groove binder CDPI3 (N) of FIG. 1 (3' {CDPI3(N)}, sugars by position and backbone not given here) | 22.09 | 26.44 | 23.22 | 23.05 | – | – |
| CDPI3—SO3^−: Oligonucleotide conjugate 5′-CCAAAATTAC-X^11-3′, X^11 being the negatively charged minor groove binder CDPI3-SO3^− of FIG. 1 (3' {CDPI3-SO3}, sugars by position and backbone not given here) | 17.82 | 21.59 | 23.22 | 18.07 | comparable to the other conjugates | – |
| CDPI4-(SO3^−)2: 3′-conjugated oligonucleotide GGTTTTAATG-X″, X″ being the attached minor groove binder CDPI4-(SO3^−)2 (3' {CDPI4-(SO3)2}, sugars by position and backbone not given here) | – | – | – | – | – | comparable mismatch discrimination |
